These results are taken from PMC11480511 (Scientific Reports, 2024).

Values joined by “and” are separate entries in the source; they are usually repeats but may differ in a detail not shown here. Identical values can stand only once.

The target in test [1] is T1, topoisomerase Iα (Homo sapiens, UniProt P11387).
T1 construct: purchased
T1 sequence (P11387 1-765): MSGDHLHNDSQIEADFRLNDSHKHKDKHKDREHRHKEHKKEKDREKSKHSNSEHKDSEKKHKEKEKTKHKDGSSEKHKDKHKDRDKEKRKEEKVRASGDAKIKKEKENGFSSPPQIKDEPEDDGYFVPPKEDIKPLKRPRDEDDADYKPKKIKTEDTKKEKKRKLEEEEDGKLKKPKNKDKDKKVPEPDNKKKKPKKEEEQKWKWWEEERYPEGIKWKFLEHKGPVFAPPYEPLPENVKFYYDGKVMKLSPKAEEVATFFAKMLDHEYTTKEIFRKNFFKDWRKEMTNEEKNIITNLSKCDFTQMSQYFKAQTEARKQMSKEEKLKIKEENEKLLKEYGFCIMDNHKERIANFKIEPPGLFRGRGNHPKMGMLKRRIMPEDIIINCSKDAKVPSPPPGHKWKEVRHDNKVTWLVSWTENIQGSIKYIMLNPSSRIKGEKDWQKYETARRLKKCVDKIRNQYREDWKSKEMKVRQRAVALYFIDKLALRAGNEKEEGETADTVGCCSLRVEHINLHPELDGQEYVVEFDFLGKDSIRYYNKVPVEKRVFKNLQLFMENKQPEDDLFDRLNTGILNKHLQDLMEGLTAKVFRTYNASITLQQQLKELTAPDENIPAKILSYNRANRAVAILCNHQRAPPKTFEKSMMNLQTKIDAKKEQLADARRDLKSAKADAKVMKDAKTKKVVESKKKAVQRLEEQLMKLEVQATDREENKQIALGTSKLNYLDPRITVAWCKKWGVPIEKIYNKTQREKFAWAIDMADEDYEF
Put plainly: Topoisomerase I inhibition, human DNA topoisomerase Elisa kit. The test is classed as biochemical. The settings on record: ± SEM. Here is the method: Two folds of serial dilution was accomplished after standards and the tested compounds were dissolved in sample diluent. Horseradish peroxidase (HRP-avidin) and biotin-conjugated antibody were diluted 10 times each. Each well received 100 µL of each concentration of the standard or test chemicals, which were then added and incubated at 37 °C for 60 min. […] The microtiter plate was rinsed three times and given room to aspirate. After that, the plate was incubated at 37 °C for 60 min with 100 µL of HRP-avidin solution added to each well. After that, the plate was aspirated and cleaned 5 times. Each well received 90 µL of TMB substrate, and the plate was incubated for 30 min. at 37 °C in a light-protected environment. Finally, stop solution (50 µL) was loaded, and within 5 min, the absorbance at 450 nm was measured spectrophotometrically.
Topoisomerase enzyme assay
Topoisomerase I and II inhibitory activity […]
topoisomerase IIβ inhibitory activity utilizing the human DNA topoisomerase Elisa kit.
Standards and the tested compound were dissolved in sample diluent and 2 folds serial dilution was achieved. Biotin-conjugated antibody and avidin conjugated Horseradish Peroxidase (HRP-avidin) were diluted to 10 folds. 100 μL of each concentration of standard or test compound were added to each well. Incubate at 37 °C for 1 h. The liquid in each well was removed. 10 0 μL of Biotin-conjugated antibody solution was added to each well followed by incubation for 1 h at 37 °C. The microtiter plate was allowed to aspirate and washed 3 times. 100 μL of avidin conjugated Horseradish Peroxidase (HRP -avidin) solution was added to each well and the plate was incubated for 1 h at 37 °C. The plate was aspirated and washed 5 times. 90 μL of TMB substrate were added to each well and the plate was incubated for 30 min at 37 °C and protected from light. 50 μL stop so lution was added. The absorbance was measured spectrophotometrically within 5 min at 450 nm .

In test [2] the test system is normal cell line WI 38. Put plainly: MTT cytotoxicity assay on normal cells. The settings on record: Homo sapiens; normal cell line WI 38, MTT assay, ± SEM; read-out: IC50 W138 normal cell line (µM ± SEM). The test is classed as cell-based. Here is the method: After 24 h of culture incubation and supernatants discarded. […] Each test should include a blank containing complete medium without cells. […] Add reconstituted MTT in an amount equal to 10% of the culture medium volume. […] Spectrophotometrically absorbance was measured at a wavelength of 570 nm. […] Results from all experiments were recorded and the percentage of viable cells was calculated.
A general note: Formazan colour is commonly taken as a measure of viable cells.

Test [3] relates to melanoma LOX IMVI cell line. Put plainly: Annexin V-FITC/PI apoptosis and necrosis assay. Format: cell-based, human. To be noted: LOX IMVI treated with IC50 concentration. Here is the method:
Following the manufacturer’s instructions, the Annexin V-FITC Apoptosis Detection Kit (Bio Vision Research Products, USA) was used to analyze cell apoptosis. Briefly, 500 µL of 1X Binding buffer was used to resuspend 1-5 × 10^5 cells that had been harvested by centrifugation. Propidium iodide (PI, 50 mg/ml) and Annexin V-FITC, each administered in 5 µL, were also added. The cells were first incubated for 5 minutes at room temperature in the dark before being analyzed using the Annexin V-FITC binding flow cytometric technique (Ex = 488 nm; Em = 530 nm) with a FITC signal detector (typically FL1) and PI staining with a phycoerythrin emission signal detector (typically FL2). Before exposing adherent cells to Annexin V-FITC, we gently trypsinized and gave them a single wash in serum-containing medium (A.3–5). Cell synchronisation is done using Double-thymidine synchronization method and the used Media is double modifed eagle media (DMEM).
Cell cycle analysis and detection of apoptosis
Annexin V-FITC apoptosis assay
Cell apoptosis were analyzed by the Annexin V-FITC Apoptosis Detection Kit (Bio Vision Research Products, USA). Thereafter, 1-5 x 10^5 cells were collected by centrifugation and resuspend in 500 μl of 1X Binding Buffer. Added 5 μl of Annexin V-FITC and 5 μl of propidium iodide (PI 50mg/ml, optional.). The cells incubated at room temperature for 5 min in the dark; Analyzed by Annexin V-FITC binding flow cytometric method (Ex = 488 nm; Em = 530 nm) using FITC signal detector (usually FL1) and PI staining by the phycoerythrin emission signal detector (usually FL2). For adherent cells, we gently trypsinized and washed cells once with serum-containing media before incubation with Annexin V-FITC (A.3-5). […]

A word on the IC50: it is the concentration at which inhibition is half-maximal. For `O=C(O)c1cn(C2CC2)c2cc(N3CCN(C(=O)CCCN4C(=O)CSC4=O)CC3)c(F)cc2c1=O` [3 L, 1-Cyclopropyl-7-(4-(4-(2,4-dioxothiazolidin-3-yl)butanoyl)piperazin-1-yl)-6-fluoro-4-oxo-1,4-dihydroquinoline-3-carboxylic acid], the IC50 in test [1] came out at 18.8 ± 1.02 µM.

The compound `O=C(O)c1cn(C2CC2)c2cc(N3CCN(C(=O)CCCN4C(=O)SC(=Cc5cccc6ccccc56)C4=O)CC3)c(F)cc2c1=O` [3j, 1-cyclopropyl-6-fluoro-7-[4-[4-[5-(1-naphthylmethylene)-2,4-dioxo-thiazolidin-3-yl]butanoyl]piperazin-1-yl]-4-oxo-quinoline-3-carboxylic acid] returned an IC50 in test [1] of 23.5 ± 1.28 µM.

Take `O=C(O)c1cn(C2CC2)c2cc(N3CCN(C(=O)CCCN4C(=O)S/C(=C\c5ccc(F)cc5)C4=O)CC3)c(F)cc2c1=O` [3i]: in test [2], the IC50 turned out to be 45.1 ± 2.43 µM. In test [1], the IC50 was 4.8 µM and 4.77 µM. In addition, in test [3], the “Apoptosis Early” value amounted to 3.03%, the “Apoptosis Late” value is reported as 24.17%, the “Apoptosis Total” value was determined as 38.51% and the Necrosis is given as 11.31%.

`O=C(O)c1cn(C2CC2)c2cc(N3CCN(C(=O)CCCN4C(=O)S/C(=C\c5ccc([N+](=O)[O-])cc5)C4=O)CC3)c(F)cc2c1=O` [3k]: the IC50 in test [1] was 36.6 ± 1.99 µM.

Turning to `O=C(O)c1cn(C2CC2)c2cc(N3CCN(C(=O)CCCN4C(=O)SC(=Cc5ccccc5)C4=O)CC3)c(F)cc2c1=O` [3a, 7-[4-[4-[5-benzylidene-2,4-dioxo-thiazolidin-3-yl]butanoyl]piperazin-1-yl]-1-cyclopropyl-6-fluoro-4-oxo-quinoline-3-carboxylic acid], the midpoint of inhibition in test [1], the IC50, lay at 14.5 ± 0.79 µM.
